Reference: patent publication US6730707B2, “Method for reducing intraocular pressure using indole derivatives” (Inspire Pharmaceuticals, Inc., priority 2000, dated 2004)
Where two headings read alike, the source gives them in different places.

Test system: New Zealand white rabbits
Test: Effects on intraocular pressure (IOP) in rabbits, TONOPEN contact tonometer, topical unilateral application
Format: in vivo, rabbit
Conditions: for IC50: Oryctolagus cuniculus; for IC50 / maximal reduction of IOP: topical; for persistence of the IOP-lowering effect / time at which the maximal effect on IOP was observed: after topical application; for IOP-lowering effect after pretreatment with luzindole: luzindole 100 μg/10 μL applied 30 min before (FIG. 4); for maximal reduction of IOP: n=8
Description: IOP was measured using a TONOPEN contact tonometer supplied by Xomed (Jacksonville, Fla., USA). Ten microliters of the agents were applied topically and unilaterally to the cornea, whereas the contralateral eye received the same volume of saline solution. The corneas were anesthetized to avoid any discomfort associated with the use of the tonometer. Two measurements were made before application of the agents. Melatonin (Sigma, St. […] A single dose was tested in a single animal on a single day.

| SMILES | IC50 (equivalent of the IC50 dose (FIG. 3), read-out: IC50 for lowering IOP, equivalent dose) [nM] | persistence of the IOP-lowering effect [h] | time at which the maximal effect on IOP was observed [h] | IC50 for lowering IOP (dose-response 10 pg/10 μL to 1 mg/10 μL, topical (FIG. 3)) [ng/10 μL] | IOP-lowering effect after pretreatment with luzindole | maximal reduction of IOP (melatonin, maximal at 10 μg/10 μL) [%] | maximal reduction of IOP (5-MCA-NAT, maximal at 100 pg/10 μL) [%] | IC50 (read-out: IC50 for lowering IOP) [µg/mL] | IC50 (read-out: IC50 for lowering IOP, equivalent dose) [nM] | maximal IOP response relative to melatonin (comparison of maximal responses) | effect on IOP when applied alone (100 μg/10 μL, over a duration of six hours) |
| --- | --- | --- | --- | --- | --- | --- | --- | --- | --- | --- | --- |
| COc1ccc2[nH]cc(CCNC(C)=O)c2c1 [melatonin] | 1.6 ± 0.1 | 3 | 1 | 363±23.0 | abolished | 24±4.4 | – | – | – | – | – |
| COC(=O)Nc1ccc2[nH]cc(CCNC(C)=O)c2c1 [Example 5-MCA-NAT, 5-(methoxycarbonylamino)-N-acetyltryptamine] | – | 10 | 2 | – | abolished | – | 43.1±3.65 | 423 ± 30 | 1.8 ± 0.1 | almost twice | – |
| CC(=O)NCCc1c(Cc2ccccc2)[nH]c2ccccc12 [luzindole] | – | – | – | – | – | – | – | – | – | – | had no effect |
